Measurements published in ChEMBL document CHEMBL1201862, “PubChem BioAssay data set” (2004).
Calls of active or inactive are those of the source.

Tests used:
Bcl-2-related protein A1 [1] = molecular target: T1, Bcl-2-related protein A1 (Mus musculus, UniProt Q07440); assay: Bfl-1 binding inhibitors, SAR follow-up, biochemical, fluorescence polarization (AID 1070)
T1 sequence (Q07440 whole entry): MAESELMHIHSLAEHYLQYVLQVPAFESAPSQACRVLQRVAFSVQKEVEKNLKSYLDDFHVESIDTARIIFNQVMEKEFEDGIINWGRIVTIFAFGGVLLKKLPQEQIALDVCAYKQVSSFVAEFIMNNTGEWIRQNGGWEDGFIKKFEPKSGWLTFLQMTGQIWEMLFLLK

Bcl-2-related protein A1 [2] = molecular target: T1, Bcl-2-related protein A1; assay: Bfl-1 inhibitors blocking BH3 peptide binding, confirmation, biochemical, TR-FRET, mouse Bfl-1 (AID 621);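 note: TR-FRET binding of GST-Bfl-1 to FITC-labelled Bid peptide via terbium antibody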
[3] = molecular target: Glyceraldehyde-3-phosphate dehydrogenase (Homo sapiens, UniProt P04406)
[4] = P. falciparum 3D7-ScDHODH growth inhibitors, dose response, SYBR Green, dry powder samples (AID 1159570); assay type: functional, cell-based;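 note: parasite growth measured after 72 hours of compound exposure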
[5] = P. falciparum Dd2 growth inhibitors, dose response, SYBR Green, cherry-picked samples (AID 1159567); assay type: functional, cell-based
[6] = P. falciparum Dd2 growth inhibitors, dose response, SYBR Green, dry powder samples (AID 1159566); assay type: functional, cell-based;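 note: potency for growth inhibition with lower SYBR green DNA signal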
[7] = P. falciparum ATP4 D1247Y mutant growth inhibitors, dose response, NITD609-resistant line, SYBR Green, dry powder (AID 1159571); assay type: functional, cell-based;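 note: parasites synchronized at ring stage by sorbitol before testing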
[8] = C. albicans growth with fluconazole, confirmation, fluorescence, retest (AID 2467); assay type: functional, cell-based
[9] = NIH-3T3 fibroblast cytotoxicity, dose response, cytotoxicity control, cell-based, fluorescence, Alamar Blue, secondary assay (AID 2327); assay type: functional;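 note: NIH-3T3 mouse fibroblasts cultured with fluconazole at 8 µg/mL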
[10] = molecular target: T2, Epstein-Barr nuclear antigen 1 (Epstein-Barr virus (strain B95-8) (HHV-4) (Human herpesvirus 4), UniProt P03211); assay: EBNA-1 inhibitors, dose response, biochemical, fluorescence polarization, 1536-well (AID 2381); parameters: species or system human gammaherpesvirus 4;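 note: fluorescence polarization of a Cy5 DNA probe bound by EBNA-1 protein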
T2 sequence (P03211 whole entry): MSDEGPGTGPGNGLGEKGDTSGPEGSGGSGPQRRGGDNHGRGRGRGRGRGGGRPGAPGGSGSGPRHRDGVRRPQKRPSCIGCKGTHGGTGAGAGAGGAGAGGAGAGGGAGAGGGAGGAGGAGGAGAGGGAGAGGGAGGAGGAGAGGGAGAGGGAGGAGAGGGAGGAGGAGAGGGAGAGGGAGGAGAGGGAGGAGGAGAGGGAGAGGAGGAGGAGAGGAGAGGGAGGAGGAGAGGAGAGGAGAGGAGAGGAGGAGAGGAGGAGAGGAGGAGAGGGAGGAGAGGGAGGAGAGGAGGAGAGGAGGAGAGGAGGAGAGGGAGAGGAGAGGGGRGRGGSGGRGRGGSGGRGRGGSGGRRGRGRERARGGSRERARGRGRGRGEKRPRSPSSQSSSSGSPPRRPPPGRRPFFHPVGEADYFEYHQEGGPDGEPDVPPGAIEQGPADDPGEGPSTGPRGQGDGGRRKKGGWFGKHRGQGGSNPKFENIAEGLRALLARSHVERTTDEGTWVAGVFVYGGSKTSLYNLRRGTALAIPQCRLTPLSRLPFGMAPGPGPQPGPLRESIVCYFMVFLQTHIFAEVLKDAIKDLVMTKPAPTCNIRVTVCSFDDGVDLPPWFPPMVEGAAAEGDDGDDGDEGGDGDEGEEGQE

[11] = molecular target: T3, Lytic switch protein BZLF1 (Epstein-Barr virus (strain B95-8) (HHV-4) (Human herpesvirus 4), UniProt P03206); assay: EBV ZTA inhibitors, dose response, counter-screen for EBNA-1 inhibitor project, biochemical, fluorescence polarization, Epstein-Barr virus, 1536-well (AID 2377); parameters: species or system human gammaherpesvirus 4;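 note: fluorescence polarization of Cy5-labelled ZRE DNA probe bound by purified Zta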
T3 sequence (P03206 whole entry): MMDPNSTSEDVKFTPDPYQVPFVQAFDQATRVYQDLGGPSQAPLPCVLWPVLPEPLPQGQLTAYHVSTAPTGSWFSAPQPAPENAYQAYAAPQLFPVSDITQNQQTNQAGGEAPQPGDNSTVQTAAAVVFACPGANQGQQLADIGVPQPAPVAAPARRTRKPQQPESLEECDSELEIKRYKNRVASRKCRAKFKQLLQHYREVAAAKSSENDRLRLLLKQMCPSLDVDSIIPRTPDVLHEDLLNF

[12] = molecular target: T4, Tyrosine-protein phosphatase non-receptor type 7 (Homo sapiens, UniProt P35236); assay: inhibitors of human HePTP phosphatase, […], biochemical, absorbance, leukemia target (AID 521); assay type: functional
T4 sequence (P35236 whole entry): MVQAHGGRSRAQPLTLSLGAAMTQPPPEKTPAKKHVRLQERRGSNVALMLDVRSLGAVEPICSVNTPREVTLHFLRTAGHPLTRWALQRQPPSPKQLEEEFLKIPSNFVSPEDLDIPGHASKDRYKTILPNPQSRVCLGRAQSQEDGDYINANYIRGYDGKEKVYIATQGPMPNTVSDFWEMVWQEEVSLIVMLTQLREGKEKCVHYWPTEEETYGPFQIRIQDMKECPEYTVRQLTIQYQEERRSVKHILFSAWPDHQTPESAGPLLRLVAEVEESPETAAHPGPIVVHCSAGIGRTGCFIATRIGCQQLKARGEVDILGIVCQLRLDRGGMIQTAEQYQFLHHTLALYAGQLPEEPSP

Protein Tat = molecular target: T5, Protein Tat (Human immunodeficiency virus type 1 group M subtype B (isolate HXB2)(HIV-1), UniProt P04608); assay type: functional;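 note: tat binding to TAR RNA read out by fluorescence polarization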
T5 sequence (P04608 whole entry): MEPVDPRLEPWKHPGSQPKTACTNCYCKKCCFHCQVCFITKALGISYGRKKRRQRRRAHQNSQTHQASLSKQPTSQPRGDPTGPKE

[13] = molecular target: Mitogen-activated protein kinase 10 (Homo sapiens, UniProt P53779); assay: Dose response biochemical screening assay for inhibitors of c-Jun N-Terminal Kinase 3 (JNK3). [Related pubchem assays: 746 ]
Sequence of Mitogen-activated protein kinase 10 (P53779 whole entry): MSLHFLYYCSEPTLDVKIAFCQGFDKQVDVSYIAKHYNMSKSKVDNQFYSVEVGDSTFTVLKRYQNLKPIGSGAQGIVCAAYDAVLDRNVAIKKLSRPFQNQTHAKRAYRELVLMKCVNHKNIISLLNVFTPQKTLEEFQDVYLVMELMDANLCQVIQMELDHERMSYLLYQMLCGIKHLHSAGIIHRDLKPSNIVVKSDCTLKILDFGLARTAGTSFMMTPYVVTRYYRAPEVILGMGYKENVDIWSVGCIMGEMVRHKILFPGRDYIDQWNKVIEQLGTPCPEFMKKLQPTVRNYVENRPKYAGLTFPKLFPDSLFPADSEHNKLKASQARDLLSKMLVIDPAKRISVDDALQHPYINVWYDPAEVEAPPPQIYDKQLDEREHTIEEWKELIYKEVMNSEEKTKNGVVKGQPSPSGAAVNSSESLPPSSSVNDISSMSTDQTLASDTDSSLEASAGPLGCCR

Sequence of Glyceraldehyde-3-phosphate dehydrogenase (P04406 whole entry): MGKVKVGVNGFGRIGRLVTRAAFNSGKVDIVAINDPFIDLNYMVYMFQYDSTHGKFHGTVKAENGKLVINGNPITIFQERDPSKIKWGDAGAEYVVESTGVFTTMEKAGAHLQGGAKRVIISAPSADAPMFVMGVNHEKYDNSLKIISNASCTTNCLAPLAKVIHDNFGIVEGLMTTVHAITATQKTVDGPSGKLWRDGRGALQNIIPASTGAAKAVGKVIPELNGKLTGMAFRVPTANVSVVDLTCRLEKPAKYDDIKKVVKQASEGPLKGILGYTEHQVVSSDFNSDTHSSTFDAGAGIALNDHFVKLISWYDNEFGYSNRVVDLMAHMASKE

In the case of `O=C1C(Cl)=C(Cl)C(=O)N1c1ccc(Cl)nc1`, the IC50 (Bcl-2-related protein A1 [1]) is reported as > 100 µM (not active), the IC50 (Bcl-2-related protein A1 [2]) is reported as 33.8 µM (active) and the IC50 [3] is reported as > 100 µM (not active).
In the case of `O=C1C(Cl)=C(N2CCN(c3ccccc3Cl)CC2)C(=O)N1c1ccc(Cl)c(Cl)c1`, the IC50 (Bcl-2-related protein A1 [1]) is reported as > 100 µM (not active), the IC50 (Bcl-2-related protein A1 [2]) is reported as > 100 µM (not active) and the IC50 [3] is reported as > 100 µM (not active).
For `O=C(c1ccncc1)N1CC(=O)N2[C@H](C1)[C@@H](c1ccc(-c3cccnc3)cc1)[C@@H]2CO`, the AC50 [4] was 0.188 µM (active), the AC50 [5] was < 0.3 µM (active) and the AC50 [6] was 0.112 µM (active). For the same compound, the AC50 [7] was 0.161 µM (active).
For `O=C(CSc1nnc(-c2ccc(Br)cc2)o1)Nc1cccc2ccccc12`, the EC50 [8] was > 38 µM (not active), the EC50 [9] was > 150 µM (inconclusive) and the IC50 [10] was 14.3 µM (not active). The IC50 [11] was > 111 µM (not active).
For `Cc1n[nH]c(C)c1S(=O)(=O)N1CCCC(C(=O)Nc2ccc3c(c2)OCCO3)C1` (centres undefined), the IC50 [12] was > 100 µM (not active).
With `O=P(O)(CN1CCCCCC1)CN1CCCCCC1` the IC50 (Protein Tat) was > 100 µM (active).
With `CN(Cc1nc(-c2cccnc2)no1)S(=O)(=O)c1ccc(Br)cc1` the IC50 [12] was > 100 µM (not active).
In the case of `NC(=O)c1c(NC(=O)Cc2cccs2)sc2c1CCC2`, the IC50 (Protein Tat) is reported as > 100 µM (active) and the IC50 [13] is reported as 28.3 µM (not active).
